Entries after “also recorded” stand apart in the source; their conditions may differ. Where two headings read alike, the source gives them in different places.

From patent publication US8026217B2, “Compositions and methods for treating neural anoxia and spreading depression” (Florida Atlantic University, priority 2007, dated 2011) come the findings set out here.

Test [1] has as its system adult Drosophila melanogaster. Format: in vivo. The settings on record: sitter adults, volatilized from DMSO 1 hr, 1 mM KT5823, 1 mM Cantharidin, 200 mM DCA, 10 mM 8-Bromo cGMP, 10 mM T-0156, versus DMSO sham. Here is the method:
FIG. 9 is a diagram illustrating in vivo treatment of adult Drosophila melanogaster with pharmacological agents. […] Adult sitters were exposed to various drugs known to target components of the PKG pathway (FIG. 8A). These drugs included: 10 mM T0156, a cGMP-specific phosphodiesterase-5 inhibitor, 10 mM 8-Bromo-cGMP, a PKG activator, 1 mM KT5823, a PKG inhibitor, 1 mM Cantharidin, a PP2A inhibitor, and 200 mM DCA, a K^+ channel activator. All drugs were solubilized in dimethyl sulfoxide (DMSO), where flies treated with only DMSO were used as sham controls. […] 10 μL of drug solution was applied to a crushed Kim wipe at the bottom of each 10 mL test vial. An additional Kim wipe was crushed over top of this to prevent direct contact between the fly and solution. 10 flies were then placed in the vial which was capped with a semi-permeable buzz-stopper, covered with a cut-out finger of a large latex glove to prevent chemical vapours from escaping, and incubated in the dark. The flies were subjected to the drug for 1 hr prior to each behavioural assay. In the drug combination experiments, 20 uL of DMSO was used as a control sham, and combinations of two pharmacological treatments were added as two separate 10 uL aliquots.
Whether or not fly PKG levels could be manipulated in vivo using a technique that uses volatilization of pharmacological agents was next examined. The role of these targets in vivo using sitter flies was examined by depositing pharmacological agents dissolved in DMSO on a cellulose tissue, and allowing them to volatize over minutes in an air tight vial at room temperature (FIG. 9). Adults were exposed to the volatilized compound for one hour in the dark and then assayed for locomotory resilience to acute hypoxia. Control sham animals (FIG. 7A) were treated with only DMSO. Compounds were chosen to target different components of the cGMP pathway (FIG. 8A) in tracheal smooth muscle and Chinese hamster ovary cells, where cGMP activates PKG, thereby activating PP2A, which then de-phosphorylates K^+ channels. The hypothesis that inhibition of this pathway would result in an increase in whole cell K^+ channel conductance, thereby leading to increased resilience to anoxic coma onset, was tested.
Locomotory Tolerance Assay during Acute Hypoxia: Ten flies (separated into males or females) from each of the three strains (rover [for^R], sitter [for^S] and for^s2) were selected and placed in three separate vials with food at least 24 hours before each experiment. At the time of the experiment, flies were emptied into 10 mL empty test vials covered with permeable sponge caps of equivalent thickness, allowing for consistent gas exchange. These test vials were then placed into a 600 mL beaker which was covered with parafilm, creating a closed chamber with an escape hole (1 cm diameter). The parafilm top was punctured with a needle connected to a gas tank (by a plastic hose), through which the inert gas argon was expelled. […] The needle tip was fastened to the bottom of the beaker and inserted into a larger sponge of similar texture to the vial sponge caps to ensure that gas expelled from the needle was dispersed equally throughout the beaker. Also, to ensure that all test vial positions in the beaker received equal gas flow, test vial positions were alternated every trial to reduce variability.
The experiment required exposing the test vials with 10 flies in the container to pure argon gas expelled from the tank at a flow rate of 600 cc/min+/−5%. Time of behavioural failure was recorded by observing the fly undergo a seizure, which was quickly followed by an anoxic coma.

Test [2] concerns metathoracic ganglion of the locust. In words: Repetitive SD triggered by ouabain in locust. It is filed as in vivo, Locusta migratoria. The settings on record: for number of repetitive SD-like events in animals that generated SD: ouabain exposure, FIG. 2D; for baseline [K+]o levels during ouabain exposure: pre-treatment, FIG. 2E. The text has this: In a second set of experiments, repetitive SD triggered by the ionic disturbance caused by ouabain (a specific inhibitor of the sodium/potassium pump that restores ionic gradients across cell membranes) was examined.
Pretreatment with a bath application of KT5823 prevented repetitive SD in 70% of animals. […] FIG. 2B illustrates a representative example in a single preparation of the eradication of repetitive SD by prior bath application of KT5823. FIG. 2C illustrates that KT5823 reduced the percentage of preparations showing repetitive SD in response to ouabain, while FIG. 2D illustrates that control and KT5823-treated preparations have fewer repetitive SD events.

Test [3] concerns mammals (mouse or rat). Briefly: Spreading depression in mammals. Format: in vivo. As to conditions: expected. An excerpt:
The pharmacological effects of a PDE5 inhibitor, 8-bromo-GMP, KT5823, and Cantharidin during spreading depression are examined in mammals (mouse or rat).

For the compound `Nc1nc2c(nc(Br)n2[C@@H]2O[C@@H]3COP(=O)(O)O[C@H]3[C@H]2O)c(=O)[nH]1` [8-Br-cGMP], in test [1] (listed as 8-Bromo cGMP), the “time to anoxic coma onset during acute hypoxia, single agents” value (from here on “time”) is “exhibited significant sensitivity to anoxic coma”. Further, in test [1] (listed as 8-bromo cGMP), the “time” value is reported as “enhanced sensitivity to acute hypoxia; also recorded: expedited locomotory failure during acute hypoxia of sitters to rover levels”. The “animals in which repetitive SD was generated” value in test [2] (concomitantly treated with 10^-4 M ouabain) stood at 100%. Moreover, in test [2], the “number of repetitive SD-like events in animals that generated SD” value is “significantly fewer SD-like events than 8-Br-cGMP-treated animals” and the “baseline [K+]o levels during ouabain exposure” value is “did not raise the baseline [K^+]o levels above controls”. In test [3], the “SD-like events and neural function” value was “increased SD-like events causing early failure of neural function”.

As for `COC(=O)[C@@]1(OC)C[C@H]2O[C@]1(C)n1c3ccccc3c3c4c(c5c6ccccc6n2c5c31)C(=O)N(C)C4` [KT5823, (9S, 10R, 12R)-2,3,9,10,11,12-Hexahydro-10-methoxy-2-9-dimethyl-1-oxo-9,12-epoxy-1H-diindolo-[1,2,3-fg:3′,2′,1′-k1]pyrrolo[3,4-i][1,6]benzodiazocine-10-carboxylic acid methyl ester], the “time” value in test [1] is listed as “significant increase in tolerance to acute hypoxia; also recorded: demonstrated significant resilience to anoxic coma”. For the same compound, in test [2], the “number of repetitive SD-like events in animals that generated SD” value is “significantly more SD-like events than KT5823-treated animals” and the “baseline [K+]o levels during ouabain exposure” value was “significantly reduces the baseline [K^+]o levels”. In addition, in test [2] (pretreatment by bath application, then ouabain), the “animals in which repetitive SD was prevented” value worked out at 70%. In addition, in test [3], the “SD-like events and neural function” value was “neuroprotection and reduces SD-like events thereby prolonging neural function”.
